Results: patent publication US20230127944A1, “BROAD-SPECTRUM CARBAPENEMS” (priority 2019, published 2023)
Converted amounts (≈) assume the structure as drawn.

Key:
Assay type in all cases: cell-based
P. aeruginosa Paeβ-17 = assay: broth microdilution MIC assay, P. aeruginosa Paeβ-17; settings: Pseudomonas aeruginosa, read-out: MIC, P. aeruginosa Paeβ-17
Outline: (§1)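 Steps: ≥5 colonies into cation-supplemented MH broth, shaken 3-5 h at 37° C; OD600-adjusted inoculum added to 2-fold compound dilutions (5×10^5 CFU/mL final); 16-20 h incubation at 37° C; visual MIC endpoint (no growth).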

[1] = tested on: P. aeruginosa ΔmexAB-OprM (an efflux pump knockout); assay: broth microdilution MIC assay, P. aeruginosa ΔmexAB-OprM; settings: Pseudomonas aeruginosa, read-out: MIC, P. aeruginosa ΔmexAB-OprM
Outline: as §1

[2] = tested on: P. aeruginosa ATCC 27853 (wild-type/QC strain); assay: broth microdilution MIC assay, P. aeruginosa 27853; settings: Pseudomonas aeruginosa, ATCC27853; read-out: MIC, P. aeruginosa 27853
Outline: as §1

[3] = tested on: S. aureus ATCC 33591 (methicillin-resistant); assay: broth microdilution MIC assay, S. aureus 33591; settings: Staphylococcus aureus, ATCC33591; S. aureus 33591, methicillin-resistant; read-out: MIC, S. aureus 33591
Outline: as §1

[4] = tested on: E. coli ATCC 25922 (wild-type/QC strain); assay: broth microdilution MIC assay, E. coli 25922; settings: Escherichia coli, ATCC25922; read-out: MIC, E. coli 25922
Outline: as §1

S. aureus USA 600 = assay: broth microdilution MIC assay, S. aureus USA600; settings: Staphylococcus aureus; S. aureus USA600 (MRSA); read-out: MIC, S. aureus USA600
Outline: as §1

S. aureus USA 300 = assay: broth microdilution MIC assay, S. aureus USA300; settings: Staphylococcus aureus; S. aureus USA300 (MRSA); read-out: MIC, S. aureus USA300
Outline: as §1

[5] = tested on: P. aeruginosa 35151 (hyper-permeable strain); assay: broth microdilution MIC assay, P. aeruginosa 35151; settings: Pseudomonas aeruginosa, read-out: MIC, P. aeruginosa 35151
Outline: as §1

Structure (SMILES) | MIC (P. aeruginosa Paeβ-17) [µg/mL] | MIC [1] [µg/mL] | MIC [2] [µg/mL] | MIC [3] [µg/mL] | MIC [4] [µg/mL] | MIC (S. aureus USA 600) [µg/mL] | MIC (S. aureus USA 300) [µg/mL] | MIC [5] [µg/mL]
C[C@@H](O)[C@H]1C(=O)N2C(C(=O)O)=C(S[C@@H]3CCN([C@H]4CC[C@H](CN)CC4)C3)[C@H](C)[C@H]12 [Example 58, (4R,5S,6S)-3-(((R)-1-((1R,4R)-4-(aminomethyl)cyclohexyl)pyrrolidin-3-yl)thio)-6-((R)-1-hydroxyethyl)-4-methyl-7-oxo-1-azabicyclo[3.2.0]hept-2-ene-2-carboxylic acid] | 8 to 32 (≈ 18.9 to 75.5 µM) | 1 to 4 (≈ 2.36 to 9.44 µM) | 1 to 4 (≈ 2.36 to 9.44 µM) | 1 to 4 (≈ 2.36 to 9.44 µM) | < 1 | 1 to 4 (≈ 2.36 to 9.44 µM) | 1 to 4 (≈ 2.36 to 9.44 µM) | < 1
C[C@@H](O)[C@H]1C(=O)N2C(C(=O)O)=C(S[C@H]3C[C@H](N[C@H]4CC[C@H](N)CC4)C3)[C@H](C)[C@H]12 [Example 59, (4R,5S,6S)-3-(((1R,3R)-3-(((1R,4R)-4-aminocyclohexyl)amino)cyclobutyl)thio)-6-((R)-1-hydroxyethyl)-4-methyl-7-oxo-1-azabicyclo[3.2.0]hept-2-ene-2-carboxylic acid] | 8 to 32 (≈ 19.5 to 78.1 µM) | 1 to 4 (≈ 2.44 to 9.77 µM) | 8 to 32 (≈ 19.5 to 78.1 µM) | 1 to 4 (≈ 2.44 to 9.77 µM) | < 1 | 8 to 32 (≈ 19.5 to 78.1 µM) | 1 to 4 (≈ 2.44 to 9.77 µM) | < 1
C[C@@H](O)[C@H]1C(=O)N2C(C(=O)O)=C(S[C@H]3C[C@H](N[C@H]4CC[C@@H](N)CC4)C3)[C@H](C)[C@H]12 [Example 60, (4R,5S,6S)-3-(((1R,3R)-3-(((1S,4S)-4-aminocyclohexyl)amino)cyclobutyl)thio)-6-((R)-1-hydroxyethyl)-4-methyl-7-oxo-1-azabicyclo[3.2.0]hept-2-ene-2-carboxylic acid] | 8 to 32 (≈ 19.5 to 78.1 µM) | 1 to 4 (≈ 2.44 to 9.77 µM) | 8 to 32 (≈ 19.5 to 78.1 µM) | 8 to 32 (≈ 19.5 to 78.1 µM) | < 1 | 1 to 4 (≈ 2.44 to 9.77 µM) | 1 to 4 (≈ 2.44 to 9.77 µM) | < 1
C[C@@H](O)[C@H]1C(=O)N2C(C(=O)O)=C(S[C@H]3C[C@@H](N[C@H]4CC[C@H](N)CC4)C3)[C@H](C)[C@H]12 [Example 61, (4R,5S,6S)-3-(((1S,3S)-3-(((1R,4S)-4-aminocyclohexyl)amino)cyclobutyl)thio)-6-((R)-1-hydroxyethyl)-4-methyl-7-oxo-1-azabicyclo[3.2.0]hept-2-ene-2-carboxylic acid] | 8 to 32 (≈ 19.5 to 78.1 µM) | 1 to 4 (≈ 2.44 to 9.77 µM) | 1 to 4 (≈ 2.44 to 9.77 µM) | 1 to 4 (≈ 2.44 to 9.77 µM) | < 1 | 1 to 4 (≈ 2.44 to 9.77 µM) | 1 to 4 (≈ 2.44 to 9.77 µM) | < 1
C[C@@H](O)[C@H]1C(=O)N2C(C(=O)O)=C(S[C@H]3C[C@@H](N[C@H]4CC[C@@H](N)CC4)C3)[C@H](C)[C@H]12 [Example 62, (4R,5S,6S)-3-(((1S,3S)-3-(((1S,4R)-4-aminocyclohexyl)amino)cyclobutyl)thio)-6-((R)-1-hydroxyethyl)-4-methyl-7-oxo-1-azabicyclo[3.2.0]hept-2-ene-2-carboxylic acid] | 8 to 32 (≈ 19.5 to 78.1 µM) | 1 to 4 (≈ 2.44 to 9.77 µM) | 1 to 4 (≈ 2.44 to 9.77 µM) | 1 to 4 (≈ 2.44 to 9.77 µM) | < 1 | 1 to 4 (≈ 2.44 to 9.77 µM) | 1 to 4 (≈ 2.44 to 9.77 µM) | < 1
C[C@@H](O)[C@H]1C(=O)N2C(C(=O)O)=C(S[C@@H]3CCN([C@H]4CC[C@@H](CNC(=N)N)CC4)C3)[C@H](C)[C@H]12 [Example 63, (4R,5S,6S)-3-(((R)-1-((1S,4S)-4-(guanidinomethyl)cyclohexyl)pyrrolidin-3-yl)thio)-6-((R)-1-hydroxyethyl)-4-methyl-7-oxo-1-azabicyclo[3.2.0]hept-2-ene-2-carboxylic acid] | 8 to 32 (≈ 17.2 to 68.7 µM) | 1 to 4 (≈ 2.15 to 8.59 µM) | 1 to 4 (≈ 2.15 to 8.59 µM) | 1 to 4 (≈ 2.15 to 8.59 µM) | < 1 | 1 to 4 (≈ 2.15 to 8.59 µM) | 1 to 4 (≈ 2.15 to 8.59 µM) | < 1
C[C@@H](O)[C@H]1C(=O)N2C(C(=O)O)=C(S[C@@H]3CCN([C@H]4CC[C@H](CNC(=N)N)CC4)C3)[C@H](C)[C@H]12 [Example 64, (4R,5S,6S)-3-(((R)-1-((1R,4R)-4-(guanidinomethyl)cyclohexyl)pyrrolidin-3-yl)thio)-6-((R)-1-hydroxyethyl)-4-methyl-7-oxo-1-azabicyclo[3.2.0]hept-2-ene-2-carboxylic acid] | 8 to 32 (≈ 17.2 to 68.7 µM) | 1 to 4 (≈ 2.15 to 8.59 µM) | 1 to 4 (≈ 2.15 to 8.59 µM) | 1 to 4 (≈ 2.15 to 8.59 µM) | < 1 | 1 to 4 (≈ 2.15 to 8.59 µM) | 1 to 4 (≈ 2.15 to 8.59 µM) | < 1
C[C@@H](O)[C@H]1C(=O)N2C(C(=O)O)=C(SC3CN([C@H]4CC[C@@H](CNC(=N)N)CC4)C3)[C@H](C)[C@H]12 [Example 65, (4R,5S,6S)-3-((1-((1S,4S)-4-(guanidinomethyl)cyclohexyl)azetidin-3-yl)thio)-6-((R)-1-hydroxyethyl)-4-methyl-7-oxo-1-azabicyclo[3.2.0]hept-2-ene-2-carboxylic acid] | 8 to 32 (≈ 17.7 to 70.9 µM) | 1 to 4 (≈ 2.21 to 8.86 µM) | 1 to 4 (≈ 2.21 to 8.86 µM) | 1 to 4 (≈ 2.21 to 8.86 µM) | < 1 | 1 to 4 (≈ 2.21 to 8.86 µM) | 1 to 4 (≈ 2.21 to 8.86 µM) | < 1
C[C@@H](O)[C@H]1C(=O)N2C(C(=O)O)=C(SC3CN([C@H]4CC[C@H](CNC(=N)N)CC4)C3)[C@H](C)[C@H]12 [Example 66, (4R,5S,6S)-3-((1-((1R,4R)-4-(guanidinomethyl)cyclohexyl)azetidin-3-yl)thio)-6-((R)-1-hydroxyethyl)-4-methyl-7-oxo-1-azabicyclo[3.2.0]hept-2-ene-2-carboxylic acid] | 8 to 32 (≈ 17.7 to 70.9 µM) | 1 to 4 (≈ 2.21 to 8.86 µM) | 1 to 4 (≈ 2.21 to 8.86 µM) | 1 to 4 (≈ 2.21 to 8.86 µM) | < 1 | 1 to 4 (≈ 2.21 to 8.86 µM) | 1 to 4 (≈ 2.21 to 8.86 µM) | < 1
C[C@@H](O)[C@H]1C(=O)N2C(C(=O)O)=C(S[C@H]3C[C@H](N[C@H]4CC[C@H](N)C4)C3)[C@H](C)[C@H]12 [Example 67, (4R,5S,6S)-3-(((1S,3R)-3-(((1S,3S)-3-aminocyclopentyl)amino)cyclobutyl)thio)-6-((R)-1-hydroxyethyl)-4-methyl-7-oxo-1-azabicyclo[3.2.0]hept-2-ene-2-carboxylic acid] | 8 to 32 (≈ 20.2 to 80.9 µM) | 1 to 4 (≈ 2.53 to 10.1 µM) | 8 to 32 (≈ 20.2 to 80.9 µM) | 8 to 32 (≈ 20.2 to 80.9 µM) | < 1 | 1 to 4 (≈ 2.53 to 10.1 µM) | 8 to 32 (≈ 20.2 to 80.9 µM) | < 1
C[C@@H](O)[C@H]1C(=O)N2C(C(=O)O)=C(S[C@H]3C[C@H](N[C@H]4CC[C@H](NC(=N)N)CC4)C3)[C@H](C)[C@H]12 [Example 68, (4R,5S,6S)-3-(((1R,3R)-3-(((1R,4R)-4-guanidinocyclohexyl)amino)cyclobutyl)thio)-6-((R)-1-hydroxyethyl)-4-methyl-7-oxo-1-azabicyclo[3.2.0]hept-2-ene-2-carboxylic acid] | 8 to 32 (≈ 17.7 to 70.9 µM) | 1 to 4 (≈ 2.21 to 8.86 µM) | 8 to 32 (≈ 17.7 to 70.9 µM) | 8 to 32 (≈ 17.7 to 70.9 µM) | < 1 | 1 to 4 (≈ 2.21 to 8.86 µM) | 1 to 4 (≈ 2.21 to 8.86 µM) | < 1
C[C@@H](O)[C@H]1C(=O)N2C(C(=O)O)=C(S[C@H]3C[C@H](N[C@H]4CC[C@@H](NC(=N)N)CC4)C3)[C@H](C)[C@H]12 [Example 69, (4R,5S,6S)-3-(((1R,3R)-3-(((1S,4S)-4-guanidinocyclohexyl)amino)cyclobutyl)thio)-6-((R)-1-hydroxyethyl)-4-methyl-7-oxo-1-azabicyclo[3.2.0]hept-2-ene-2-carboxylic acid] | 8 to 32 (≈ 17.7 to 70.9 µM) | 1 to 4 (≈ 2.21 to 8.86 µM) | 8 to 32 (≈ 17.7 to 70.9 µM) | 8 to 32 (≈ 17.7 to 70.9 µM) | < 1 | 1 to 4 (≈ 2.21 to 8.86 µM) | 1 to 4 (≈ 2.21 to 8.86 µM) | < 1
C[C@@H](O)[C@H]1C(=O)N2C(C(=O)O)=C(S[C@H]3C[C@H](N[C@@H]4CC[C@H](N)C4)C3)[C@H](C)[C@H]12 [Example 70, (4R,5S,6S)-3-(((1R,3R)-3-(((1R,3S)-3-aminocyclopentyl)amino)cyclobutyl)thio)-6-((R)-1-hydroxyethyl)-4-methyl-7-oxo-1-azabicyclo[3.2.0]hept-2-ene-2-carboxylic acid] | 8 to 32 (≈ 20.2 to 80.9 µM) | 1 to 4 (≈ 2.53 to 10.1 µM) | 8 to 32 (≈ 20.2 to 80.9 µM) | 8 to 32 (≈ 20.2 to 80.9 µM) | < 1 | 1 to 4 (≈ 2.53 to 10.1 µM) | 8 to 32 (≈ 20.2 to 80.9 µM) | < 1
C[C@@H](O)[C@H]1C(=O)N2C(C(=O)O)=C(S[C@H]3C[C@H](N[C@@H]4CC[C@@H](N)C4)C3)[C@H](C)[C@H]12 [Example 71, (4R,5S,6S)-3-(((1R,3R)-3-(((1R,3R)-3-aminocyclopentyl)amino)cyclobutyl)thio)-6-((R)-1-hydroxyethyl)-4-methyl-7-oxo-1-azabicyclo[3.2.0]hept-2-ene-2-carboxylic acid] | 8 to 32 (≈ 20.2 to 80.9 µM) | 1 to 4 (≈ 2.53 to 10.1 µM) | 8 to 32 (≈ 20.2 to 80.9 µM) | 8 to 32 (≈ 20.2 to 80.9 µM) | < 1 | 1 to 4 (≈ 2.53 to 10.1 µM) | 1 to 4 (≈ 2.53 to 10.1 µM) | < 1
